# Data: patent US10022461B2, “Pyrrolo[2,3-C]pyridines as imaging agents for neurofibrilary tangles” (MERCK SHARP & DOHME CORP., priority 2014, dated 2018)
# Target: tau (Homo sapiens, UniProt P10636)
# Assay: displacement tau binding assay in AD brain homogenates with [^3H]-6
# Conditions: Table 1, displacement of [^3H]-6 (0.25 nM)
# Protocol: The frozen human brain samples of Alzheimer's disease (AD) were purchased from Analytic Biological Services Inc. They were postmortem tissue from donors with clinical diagnosis of AD. As much of the white matter was dissected out of the frontal cortex in order to enrich the tissue preparations for gray matter. Brain homogenates of gray matter enriched frontal cortex were prepared by homogenizing the tissue in ice cold Phosphate Buffered Saline (PBS), pH 7.4 at 80 mg wet weight tissue per 1 mL for 45 seconds at 4° C. on setting 16 of Polytron. The homogenate was further diluted with ice cold PBS to 30 mg wet weight tissue per 1 mL and homogenized for an additional minute as described above. Homogenates were aliquoted in 5 ml/tube and store at −70° C. until use. […] Brain homogenates were diluted to 0.5 mg/mL from original 30 mg/mL volume in Assay Buffer, and 200 μl were added to the assay plate for a final concentration of 100 μg wet weight/assay tube. [^3H]-6 was prepared at […] final concentration in Assay Buffer plus 20% DMSO and 25 μl was added to the assay plate for final assay concentration of 0.25 nM. The assay plate was incubated at room temperature (25° C.) for 90 minutes. […] Filter plates were dried for 1 hour in a vacuum oven and 50 μl/well MicroScint-20 were added. Plates were counted 1 min per well by Packard Topcount. Total amount of radioligand used in the assay was determined by counting 25 μl of 10× ligand stock. […] Tau Ki data for representative compounds of the invention are found in Table 1.
# Sequence of tau (P10636 2-758 limits assumed): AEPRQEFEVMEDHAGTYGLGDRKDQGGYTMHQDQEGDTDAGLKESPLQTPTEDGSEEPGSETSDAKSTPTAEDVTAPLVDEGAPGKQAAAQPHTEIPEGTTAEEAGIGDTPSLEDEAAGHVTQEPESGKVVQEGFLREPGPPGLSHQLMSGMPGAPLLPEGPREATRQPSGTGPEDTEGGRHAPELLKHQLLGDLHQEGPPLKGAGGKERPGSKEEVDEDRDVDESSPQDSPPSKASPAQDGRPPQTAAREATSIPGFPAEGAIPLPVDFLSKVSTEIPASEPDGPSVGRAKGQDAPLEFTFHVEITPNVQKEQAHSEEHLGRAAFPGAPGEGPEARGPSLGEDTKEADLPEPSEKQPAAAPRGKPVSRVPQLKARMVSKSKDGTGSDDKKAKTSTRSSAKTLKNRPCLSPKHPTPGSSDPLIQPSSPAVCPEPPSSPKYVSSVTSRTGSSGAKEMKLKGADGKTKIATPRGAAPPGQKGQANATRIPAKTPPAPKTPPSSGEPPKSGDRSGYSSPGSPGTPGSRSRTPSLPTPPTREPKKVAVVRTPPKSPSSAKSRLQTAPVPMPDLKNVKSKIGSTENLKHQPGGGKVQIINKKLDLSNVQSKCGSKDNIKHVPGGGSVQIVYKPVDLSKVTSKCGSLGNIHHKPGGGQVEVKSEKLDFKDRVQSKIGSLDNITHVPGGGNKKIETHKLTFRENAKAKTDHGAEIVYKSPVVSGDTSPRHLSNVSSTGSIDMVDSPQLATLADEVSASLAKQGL
row,Ki [nM],Structure (SMILES)
1,0.54,"c1ccc2cc(-n3ccc4ccncc43)ncc2c1 [Compound 6, 3-(1H-pyrrolo[2,3-c]pyridin-1-yl)isoquinoline]"
2,1.65,"FCC#Cc1ccc(-n2ccc3ccncc32)nc1 [Compound 7, 1-(5-(3-fluoroprop-1-ynyl)pyridin-2-yl)-1H-pyrrolo[2,3-c]pyridine]"
3,0.48,"c1cc2ccn(-c3cc4cc[nH]c4cn3)c2cn1 [Compound 8, 1-(1H-pyrrolo[2,3-c]pyridin-5-yl)-1H-pyrrolo[2,3-c]pyridine]"
4,0.22,"Fc1ccc2cnc(-n3ccc4ccncc43)cc2c1 [Compound 9, 6-fluoro-3-(1H-pyrrolo[2,3-c]pyridin-1-yl)isoquinoline]"
5,0.4,"Nc1cccc2cnc(-n3ccc4ccncc43)cc12 [Compound 11-5, 3-(1H-pyrrolo[2,3-c]pyridin-1-yl)isoquinolin-5-amine]"
6,0.29,"Nc1ccc2cc(-n3ccc4ccncc43)ncc2c1 [Compound 12, 3-(1H-pyrrolo[2,3-c]pyridin-1-yl)isoquinolin-7-amine]"
7,0.29,"COc1ccc2cc(-n3ccc4ccncc43)ncc2c1 [Compound 13, 7-methoxy-3-(1H-pyrrolo[2,3-c]pyridin-1-yl)isoquinoline]"
8,2.28,"CN(CCF)c1ccc2cnc(-n3ccc4ccncc43)cc2c1 [Compound 14, N-(2-fluoroethyl)-N-methyl-3-(1H-pyrrolo[2,3-c]pyridin-1-yl)isoquinolin-6-amine]"
9,0.33,"CNc1ccc2cnc(-n3ccc4ccncc43)cc2c1 [Compound 14-1, N-methyl-3-(1H-pyrrolo[2,3-c]pyridin-1-yl)isoquinolin-6-amine]"
10,0.53,"Oc1ccc2cc(-n3ccc4ccncc43)ncc2c1 [Compound 15, 3-(1H-pyrrolo[2,3-c]pyridin-1-yl)isoquinolin-7-ol]"
11,0.41,"FCCOc1ccc2cc(-n3ccc4ccncc43)ncc2c1 [Compound 16, 7-(2-fluoroethoxy)-3-(1H-pyrrolo[2,3-c]pyridin-1-yl)isoquinoline]"
12,0.43,"FCOc1ccc2cc(-n3ccc4ccncc43)ncc2c1 [Compound 17, 7-(fluoromethoxy)-3-(1H-pyrrolo[2,3-c]pyridin-1-yl)isoquinoline]"
13,0.43,"Nc1c(F)ccc2cnc(-n3ccc4ccncc43)cc12 [Compound 18, 6-fluoro-3-(1H-pyrrolo[2,3-c]pyridin-1-yl)isoquinolin-5-amine]"
14,0.62,"Cn1ccc2cc(-n3ccc4ccncc43)ncc21 [Compound 19, 1′-methyl-1,5′-bi(1H-pyrrolo[2,3-c]pyridine)]"
15,0.75,"Ic1ccc2cnc(-n3ccc4ccncc43)cc2c1 [Compound 20, 6-iodo-3-(1H-pyrrolo[2,3-c]pyridin-1-yl)isoquinoline]"
16,4.1,"CC#Cc1cnc(-n2ccc3ccncc32)cc1CF [Compound 21, 1-(4-(fluoromethyl)-5-(prop-1-ynyl)pyridin-2-yl)-1H-pyrrolo[2,3-c]pyridine]"
17,3.35,"CC#Cc1cnc(-n2ccc3ccncc32)cc1CO [Compound 21-4, (5-(prop-1-ynyl)-2-(1H-pyrrolo[2,3-c]pyridin-1-yl)pyridin-4-yl)methanol]"
18,1.43,"CC#Cc1cnc(-n2ccc3ccncc32)cc1F [Compound 22, 1-(4-fluoro-5-(prop-1-ynyl)pyridin-2-yl)-1H-pyrrolo[2,3-c]pyridine]"
19,2.1,"Cc1cc2cnc(-n3ccc4ccncc43)cc2o1 [Compound 23, 2-methyl-6-(1H-pyrrolo[2,3-c]pyridin-1-yl)furo[3,2-c]pyridine]"

row,Ki [nM],Structure (SMILES)
1,12.8,"FCOc1ccc2nc(-n3ccc4ccncc43)ncc2c1 [Compound 24, 6-(fluoromethoxy)-2-(1H-pyrrolo[2,3-c]pyridin-1-yl)quinazoline]"
2,1.55,"COc1ccc2nc(-n3ccc4ccncc43)ncc2c1 [Compound 24-4, 6-methoxy-2-(1H-pyrrolo[2,3-c]pyridin-1-yl)quinazoline]"
3,11.1,"Oc1ccc2nc(-n3ccc4ccncc43)ncc2c1 [Compound 24-5, 2-(1H-pyrrolo[2,3-c]pyridin-1-yl)quinazolin-6-ol]"
4,14.1,"Fc1nccc2cnc(-n3ccc4ccncc43)cc12 [Compound 25, 1-fluoro-7-(1H-pyrrolo[2,3-c]pyridin-1-yl)-2,6-naphthyridine]"
5,2.27,"c1cc2cnc(-n3ccc4ccncc43)cc2cn1 [Compound 26, 3-(1H-pyrrolo[2,3-c]pyridin-1-yl)-2,6-naphthyridine]"
6,2.41,"FCCn1ccc(-c2cnc(-n3ccc4ccncc43)nc2)n1 [Compound 29, 1-(5-(1-(2-fluoroethyl)-1H-pyrazol-3-yl)pyrimidin-2-yl)-1H-pyrrolo[2,3-c]pyridine]"
7,2.44,"C=Cc1cc(-n2ccc3ccncc32)ncc1C#CCF [Compound 30, 1-(5-(3-fluoroprop-1-ynyl)-4-vinylpyridin-2-yl)-1H-pyrrolo[2,3-c]pyridine]"
8,2.88,"ClCCC1CCN(c2ccc(-n3ccc4ccncc43)nc2)CC1 [Compound 31, 1-(5-(4-(2-chloroethyl)piperidin-1-yl)pyridin-2-yl)-1H-pyrrolo[2,3-c]pyridine]"
9,3.54,"OCCC1CCN(c2ccc(-n3ccc4ccncc43)nc2)CC1 [Compound 31-1, 2-(1-(6-(1H-pyrrolo[2,3-c]pyridin-1-yl)pyridin-3-yl)piperidin-4-yl)ethanol]"
10,2.98,"Cc1cc(-n2ccc3ccncc32)ncc1OCCF [Compound 32, 1-(5-(2-fluoroethoxy)-4-methylpyridin-2-yl)-1H-pyrrolo[2,3-c]pyridine]"
11,3.34,"CC#Cc1cnc(-n2ccc3ccncc32)cc1OC [Compound 33, 1-(4-methoxy-5-(prop-1-ynyl)pyridin-2-yl)-1H-pyrrolo[2,3-c]pyridine]"
12,3.83,"COc1ccc(NC(=O)c2ccc(-n3ccc4ccncc43)nc2)cc1 [Compound 34, N-(4-methoxyphenyl)-6-(1H-pyrrolo[2,3-c]pyridin-1-yl)nicotinamide]"
13,3.19,"FCCCNc1ccc(-n2ccc3ccncc32)nc1 [Compound 35, N-(3-fluoropropyl)-6-(1H-pyrrolo[2,3-c]pyridin-1-yl)pyridin-3-amine]"
14,4.96,"FCCNc1ccc(-n2ccc3ccncc32)nc1 [Compound 36, N-(2-fluoroethyl)-6-(1H-pyrrolo[2,3-c]pyridin-1-yl)pyridin-3-amine]"
15,19.7,"Fc1nc(-n2ccc3ccncc32)ccc1-c1cccnc1 [Compound 37, 1-(2-fluoro-3,3′-bipyridin-6-yl)-1H-pyrrolo[2,3-c]pyridine]"
16,52.3,"Fc1cc2ccn(-c3cc4ccccc4cn3)c2cn1 [Compound 38, 3-(5-fluoro-1H-pyrrolo[2,3-c]pyridin-1-yl)isoquinoline]"
17,10.8,"c1cc2ccn(-c3cc4c(cn3)CCCN4)c2cn1 [Compound 39, 7-(1H-pyrrolo[2,3-c]pyridin-1-yl)-1,2,3,4-tetrahydro-1,6-naphthyridine]"
18,52.7,"Fc1ccc2cnc(-n3ccc4ccncc43)cc2n1 [Compound 40, 2-fluoro-7-(1H-pyrrolo[2,3-c]pyridin-1-yl)-1,6-naphthyridine]"
19,8.8,"c1cc2ccn(-c3ccc(-c4nc[nH]n4)cn3)c2cn1 [Compound 41, 1-(5-(1H-1,2,4-triazol-3-yl)pyridin-2-yl)-1H-pyrrolo[2,3-c]pyridine]"

row,Ki [nM],Structure (SMILES)
1,71.1,"OC1CCN(c2ccc(-n3ccc4ccncc43)nc2)CC1 [Compound 42, 1-(6-(1H-pyrrolo[2,3-c]pyridin-1-yl)pyridin-3-yl)piperidin-4-ol]"
2,10,"FC1CCN(c2ccc(-n3ccc4ccncc43)nc2)CC1 [Compound 43, 1-(5-(4-fluoropiperidin-1-yl)pyridin-2-yl)-1H-pyrrolo[2,3-c]pyridine]"
3,1.13,"Fc1cc(-c2ccc(-n3ccc4ccncc43)nc2)ccn1 [Compound 44, 1-(6′-fluoro-3,4′-bipyridin-6-yl)-1H-pyrrolo[2,3-c]pyridine]"
4,2.19,"c1cc(-c2ccc(-n3ccc4ccncc43)nc2)ncn1 [Compound 46, 1-(5-(pyrimidin-4-yl)pyridin-2-yl)-1H-pyrrolo[2,3-c]pyridine]"
5,0.67,Oc1cccc2cnc(-n3ccc4ccncc43)cc12 [Compound 49]
6,0.75,C#Cc1cnc(-n2ccc3ccncc32)cc1C [Compound 50]
7,0.87,Cc1cc(-n2ccc3ccncc32)ncc1C#CCF [Compound 51]
8,0.98,CC#Cc1ccc(-n2ccc3ccncc32)nc1 [Compound 52]
9,1.02,c1cc2ccn(-c3ccc(-c4cncs4)cn3)c2cn1 [Compound 53]
10,1.05,Fc1cccc2cnc(-n3ccc4ccncc43)cc12 [Compound 54]
11,1.14,FCOc1cccc2cc(-n3ccc4ccncc43)ncc12 [Compound 55]
12,1.16,Oc1cccc2cc(-n3ccc4ccncc43)ncc12 [Compound 56]
13,1.23,FCOc1ccc2cnc(-n3ccc4ccncc43)cc2c1 [Compound 57]
14,1.32,Cn1cc(-c2ccc(-n3ccc4ccncc43)nc2)cn1 [Compound 58]
15,0.33,Nc1cccc2cc(-n3ccc4ccncc43)ncc12 [Compound 59]
16,2.04,Fc1ccc(-c2ccc(-n3ccc4ccncc43)nc2)cn1 [Compound 60]
17,2.23,CN(C)c1ccc2cnc(-n3ccc4ccncc43)cc2c1 [Compound 61]
18,2.55,Fc1ccc2nc(-n3ccc4ccncc43)ncc2c1 [Compound 62]
